The values that follow come from article PMC4861903, “Synthesis of a highly water-soluble acacetin prodrug for treating experimental atrial fibrillation in beagle dogs” (Scientific Reports, 2016).

Read-outs that look alike come from different tables or passages of the source.

By LD50 is commonly meant the dose expected to kill half of the subjects tested.

What all share (assay type): in vivo
Data set [1] relates to ICR mice. As to the kind of experiment: Acute toxicity assessment in ICR mice, single i.v. dose. As to the method: (§1) The acute toxicity of acacetin prodrug was assessed in ICR mice (weighing 18~22 g) as described in Supplemental Materials, and the LD50 was calculated by the Bliss method. […]
(§2) Acute toxicity assessment of acacetin prodrug
(§3) The acute toxicity of acacetin prodrug was assessed in ICR mice (weighing 18~22 g) provided by the Laboratory Animal Center of Hong Kong University (Hong Kong, China) and maintained under controlled temperature conditions (23 °C), with a constant 12 h light-dark cycle and free access to food and water. Sixty ICR mice (male, 30; female, 30) were stratified by weight and randomly assigned to six groups: (n = 10 in each group, 5 male and 5 female).
(§4) Acacetin prodrug dissolved in 5% glucose was intravenously administered at 900, 810, 765, 720, 630 and 540 mg/kg through tail vein, respectively. The animals were closely observed for symptoms and mortality in 24 h. All of the surviving animals were euthanized at the end of the study, and their vital organs were individually observed for gross pathology by necropsy, and the LD50 was calculated by the Bliss method.11, 12

Experiment in data set [2]: as above
To be noted: both sexes, ICR, mouse, in vivo, iv, Bliss method. How it is done:
as §1, §2, §3, §4

Data set [3] deals with experimental AF induced by vagal nerve stimulation and burst atrial pacing. In words: Vagal nerve stimulation-induced AF in beagle dogs. The conditions noted are these: for AF duration in animals with effective AF termination: vehicle 30 min. As to the method: The anti-AF effect of acacetin prodrug was investigated in AF model (with AF duration of 30 min), which was established in beagle dogs with modified procedure as described previously. After three-repeats of stable AF (30 min), drug treatment was applied on 4th repeat (Fig. 5A). Acacetin prodrug dissolved in 5% glucose was administrated intravenously after 1 min of onset of AF induction. A bolus of one third dosage was infused within 2 min, then two third of the dosage (3, 6, and 12 mg/kg) was continuously infused for 18 min. The AF disappeared within 30 min before stopping bilateral vagal nerve stimulation was considered to be effective termination of AF (Fig. 5B). Blood samples were collected at different time points (5, 10, 20, 30, 45 and 60 min) during the experiment to determine the plasma acacetin concentrations. Figure 5C illustrates the termination rate of AF by different doses of acacetin prodrug. […] In addition, AF induction was repeated at 40 min after discontinuous prodrug infusion. AF was terminated at 25.3 ±1.8 min after re-induction (P < 0.01 vs. vehicle) in these animals (n = 15) with drug treatment, but not in animals treated with 5% glucose vehicle (30 min duration). However, the duration of AF was longer than during the initial drug administration (25.3 ± 1.8 min vs.17.1 ± 1.3 min, P < 0.01).
Experimental AF was induced by vagal nerve stimulation in beagle dogs with modified procedure as described previously. Briefly, AF was generated by a 10-s burst atrial pacing with a 4-fold diastolic threshold potential (60-ms interval) after 30 s vagal nerve stimulation. If AF persisted for 30 min, it was terminated by stopping vagal nerve stimulation. The stable AF lasting for 30 min was repeated for three times (20 min interval), drug test (vehicle or different doses of acacetin prodrug) was then performed. A shortened duration of AF during the continuous vagal nerve stimulation was considered to be effective termination of AF for drug treatment. […]
China) were anesthetized with pentobarbital (40 mg/kg, i.v.), supplemented as necessary during the experiment. The animal was kept on an operation table maintained at 37°C, intubated and ventilated with room air. The left femoral vein was cannulated to maintain fluid balance, anesthesia, and test articles. Lead II electrocardiogram (ECG) was continuously monitored with using a digital recording system (RM6240, Chengdu Instruments, China)
An action potential (MAP) recording- and pacing-catheter (Boston Scientific Ltd) was introduced to the right atrium through right jugular vein, and an electrical pacing catheter was introduced to left ventricle via […] for ventricular pacing (when necessary).
Bilateral cervical vagal nerves were isolated and bipolar electrodes were placed to stimulate efferent vagal nerves with 15 Hz, 0.2 ms duration voltage step (80-100% threshold) to induce a 50% reduction of heart rate. Ventricular pacing was performed with 2-ms voltage pulses (2.5 Hz, 150% diastolic threshold) when vagal nerves were continuously stimulated. Experimental atrial fibrillation (AF) model is established in beagle dogs with modified procedure as described previously.8-10 Briefly, AF was generated by a 10-s burst atrial pacing with a 4-fold diastolic threshold potential (60 ms interval) after 30 s vagal nerves stimulation. If AF persisted for 30 min, AF was terminated by stopping vagal nerve stimulation. After stable persistent AF lasing for 30 min was repeated for three times (20 min interval), drug test (vehicle or different doses of phosphate sodium salt prodrug of acacetin) was performed. A shortened AF duration during the continuous vagal stimulation was considered to be effective termination of AF. All the biological signals were recorded using the digital recording system (RM6240, Chengdu […]
Instruments, China). […]
Sixty ICR mice (male, 30; female, 30) were stratified […]

With `COc1ccc(-c2cc(=O)c3c(O)cc(OP(=O)([O-])[O-])cc3o2)cc1.[Na+].[Na+]` [acacetin prodrug, phosphate sodium salt of acacetin], the mortality result in data set [1] (i.v. dose of 900 mg/kg) was “all animals died”. Further, the “survival within 24 h” value in data set [1] (i.v. dose of up to 540 mg/kg) is “All animals survived”. Also, the “adverse effects or signs of toxicity in the surviving animals” value in data set [1] (i.v., 24 h observation) is given as “No significant adverse effects or signs of toxicity”. Moreover, in data set [1] (i.v., end of study), the “necropsy of the surviving mice” value is “no gross pathological alteration”. In data set [1] (intravenous (tail vein), single dose, Bliss method), this compound gave an LD50 of 721 mg/kg. Besides, the LD50 at 24 h in data set [2] (read-out: LD50 with 95% confidence level) was 685 to 760 mg/kg; in data set [2] (intravenous (tail vein), single dose, read-out: LD50), 722 mg/kg. The “termination rate of AF” value in data set [3] (3 mg/kg i.v. (1/3 bolus in 2 min, 2/3 infused 18 min), 3 of 6 dogs, vehicle 0%) stood at 50%; in data set [3] (6 mg/kg i.v. (1/3 bolus in 2 min, 2/3 infused 18 min), 6 of 8 dogs, P < 0.05 vs. vehicle) it was 75%; in data set [3] (12 mg/kg i.v. (1/3 bolus in 2 min, 2/3 infused 18 min), 5 of 7 dogs, P < 0.05 vs. vehicle) it was 71.4%. For the same compound, the “AF duration in animals with effective AF termination” value in data set [3] (6 mg/kg i.v.) came to 17.2 ± 2.3 min; in data set [3] (12 mg/kg i.v.), 15.5 ± 2.7 min. Also, in data set [3] (AF induction repeated at 40 min after discontinuous prodrug infusion, all doses pooled, n = 15, P < 0.01 vs. vehicle (30 min)), the “AF terminated at, after re-induction” value is 25.3 ± 1.8 min. The “duration of AF during the initial drug administration” value in data set [3] (all doses pooled, animals with drug treatment) came to 17.1 ± 1.3 min.
